Values of other authors in patent US8609652B2, “Method of administering a methylene blue-curcumin analog for the treatment of alzheimer's disease” (DePuy Synthes Products, LLC, priority 2009, dated 2013).

Key:
[1] = test system: beta-amyloid aggregation; details: cited from earlier work
[2] = iontophoresis of 100 mg for 20 minutes; cited from earlier work
[3] = test system: rate of cognitive decline; details: 19 month period; cited from earlier work
[4] = test system: tau filaments; details: cited from earlier work
[5] = test system: neuronal mitochondrial complex IV; details: cited from earlier work
[6] = 10 mg/ml patch, 0.1 mA/cm^2 current density; cited from earlier work

NCCc1ccc(O)c(O)c1 [dopamine]
potency to inhibit beta-amyloid aggregation relative to curcumin [1]: about 10 times

O=C(OCCOCCO)c1ccccc1Nc1cccc(C(F)(F)F)c1 [etofenamate]
serum concentration [2]: about 200 ng/ml

CN(C)c1ccc2nc3ccc(=[N+](C)C)cc-3sc2c1 [methylene blue]
decrease in the rate of cognitive decline as compared to controls [3]: 81% | formation of tau filaments [4]: inhibits the formation of tau filaments | enhancement of cellular oxygen consumption [5]: 37-70% | increase of neuronal mitochondrial complex IV [5]: 30%

CC(C)NCC(O)COc1cccc2ccccc12 (stereo not shown) [propranolol]
Cmax serum concentration [6]: about 200 ng/ml
